Experimental data published in patent publication US20260355165A1, “2,3,4,9-TETRAHYDRO-1H-PYRIDO[3,4-B]INDOLE DERIVATIVES AS ESTROGEN RECEPTOR MODULATORS FOR THE TREATMENT OF CANCER” (Olema Pharmaceuticals, Inc., priority 2022, published 2026).
pIC50: −log10 of the molar value.

Target: T1, estrogen receptor (Homo sapiens, UniProt P03372)
T1 construct: endogenous in cells; host or cells: ECC-1 cells
T1 sequence (P03372 1-595): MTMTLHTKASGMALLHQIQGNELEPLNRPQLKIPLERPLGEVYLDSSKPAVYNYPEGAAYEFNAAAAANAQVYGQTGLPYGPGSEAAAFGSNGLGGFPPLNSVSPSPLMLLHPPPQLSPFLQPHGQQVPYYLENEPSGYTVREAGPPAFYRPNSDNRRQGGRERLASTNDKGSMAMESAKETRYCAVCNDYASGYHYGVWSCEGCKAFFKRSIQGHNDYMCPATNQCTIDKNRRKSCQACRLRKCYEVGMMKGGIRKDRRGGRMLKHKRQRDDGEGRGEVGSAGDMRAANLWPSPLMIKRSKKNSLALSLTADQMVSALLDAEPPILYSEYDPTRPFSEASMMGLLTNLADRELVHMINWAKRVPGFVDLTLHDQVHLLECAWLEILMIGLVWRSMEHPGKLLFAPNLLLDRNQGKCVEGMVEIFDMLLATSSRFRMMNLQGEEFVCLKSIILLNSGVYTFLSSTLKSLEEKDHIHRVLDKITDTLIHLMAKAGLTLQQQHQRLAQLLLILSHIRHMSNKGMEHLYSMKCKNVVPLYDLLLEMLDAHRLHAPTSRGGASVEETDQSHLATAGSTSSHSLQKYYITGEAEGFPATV
Experiment: AP assay (alkaline phosphatase activity in ECC-1 cells), agonist mode (absence of E2) and antagonist mode (presence of 500 pM E2)
Format: cell-based
Conditions: for Activity (estrogen receptor modulation, e.g., agonism and antagonism): 3 days, AP activity normalized to 500 pM E2 alone, agonist and antagonist mode combined
How it was run: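 ECC-1 cells in hormone-depleted medium treated with compounds for 3 days, without E2 (agonist mode) or with 500 pM E2 (antagonist mode). AP activity read at 405 nm after p-nitrophenyl phosphate substrate, 40 min at 42 °C. Signal normalized to 500 pM E2 alone.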

| Compound | Activity (estrogen receptor modulation, e.g., agonism and antagonism) | other results |
| --- | --- | --- |
| C[C@@H]1Cc2c([nH]c3ccccc23)[C@@H](c2ccc3[nH]c(CN4CC(CF)C4)cc3c2)N1CC(F)(F)C(F)(F)F [Compound I-110, (1R,3R)-1-[2-[[3-(fluoromethyl)azetidin-1-yl]methyl]-1H-indol-5-yl]-3-methyl-2-(2,2,3,3,3-pentafluoropropyl)-1,3,4,9-tetrahydropyrido[3,4-b]indole] |  | pIC50 (AP assay, antagonist mode, 500 pM E2, 3 days): > 6.40; increase in E2-normalized signal in the AP assay (agonist mode) (agonist mode, absence of E2, 3 days): no more than 10%; reduction in the E2-normalized signal in the AP assay (antagonist mode) (antagonist mode, 500 pM E2, 3 days): ≥ 10% |
| C[C@@H]1Cc2c([nH]c3ccccc23)[C@@H](c2ccc3[nH]c(CN4CC[C@H](F)C4)cc3c2)N1CC(C)(C)F [Compound I-47, (1R,3R)-2-(2-fluoro-2-methyl-propyl)-1-[2-[[(3S)-3-fluoropyrrolidin-1-yl]methyl]-1H-indol-5-yl]-3-methyl-1,3,4,9-tetrahydropyrido[3,4-b]indole] | + (estrogen receptor agonism having (i) at least 80% increase in the E2-normalized signal in the AP assay (agonist mode) and (ii) no more than 80% reduction in the E2-normalized signal in the AP assay (antagonist mode)) |  |
| C[C@@H]1Cc2c([nH]c3ccccc23)[C@@H](c2cc(F)c3oc(CN4CC(CF)C4)nc3c2)N1CC(F)(F)CO [Compound I-81, 2,2-difluoro-3-[(1R,3R)-1-[7-fluoro-2-[[3-(fluoromethyl)azetidin-1-yl]methyl]-1,3-benzoxazol-5-yl]-3-methyl-1,3,4,9-tetrahydropyrido[3,4-b]indol-2-yl]propan-1-ol] | + (estrogen receptor agonism having (i) at least 80% increase in the E2-normalized signal in the AP assay (agonist mode) and (ii) no more than 80% reduction in the E2-normalized signal in the AP assay (antagonist mode)) |  |
| C[C@@H]1Cc2c([nH]c3ccccc23)[C@@H](c2n[nH]c3cc(CN4CC5(CC(O)C5)C4)ccc23)N1CC(C)(C)F [Compound I-31, 2-[[3-[(1S,3R)-2-(2-fluoro-2-methyl-propyl)-3-methyl-1,3,4,9-tetrahydropyrido[3,4-b]indol-1-yl]-1H-indazol-6-yl]methyl]-2-azaspiro[3.3]heptan-6-ol] | + (estrogen receptor agonism having (i) at least 80% increase in the E2-normalized signal in the AP assay (agonist mode) and (ii) no more than 80% reduction in the E2-normalized signal in the AP assay (antagonist mode)) |  |
| C[C@@H]1Cc2c([nH]c3ccccc23)[C@@H](c2n[nH]c3cc(CN4CC5(CC(F)C5)C4)ccc23)N1CC(C)(C)F [Compound I-33, (1S,3R)-1-[6-[(6-fluoro-2-azaspiro[3.3]heptan-2-yl)methyl]-1H-indazol-3-yl]-2-(2-fluoro-2-methyl-propyl)-3-methyl-1,3,4,9-tetrahydropyrido[3,4-b]indole] | +++ (estrogen receptor antagonism (i) with pIC50 greater than 7.5 and at least a 10% reduction in the E2-normalized signal in the AP assay (antagonist mode); and (ii) no more than 10% increase in E2-normalized signal in the AP assay (agonist mode)) |  |
| C[C@@H]1Cc2c([nH]c3ccccc23)[C@@H](c2cc3nc(CN4CC(CF)C4)oc3cc2F)N1CC(C)(C)F [Compound I-78, 6-fluoro-2-[[3-(fluoromethyl)azetidin-1-yl]methyl]-5-[(1R,3R)-2-(2-fluoro-2-methyl-propyl)-3-methyl-1,3,4,9-tetrahydropyrido[3,4-b]indol-1-yl]-1,3-benzoxazole] | + (estrogen receptor agonism having (i) at least 80% increase in the E2-normalized signal in the AP assay (agonist mode) and (ii) no more than 80% reduction in the E2-normalized signal in the AP assay (antagonist mode)) |  |
